In patent US20160318933A1, “FUSED PYRAZOLE DERIVATIVE” (SUMITOMO DAINIPPON PHARMA CO., LTD., priority 2013, published 2016):
pEC50: −log10 of the molar value.

Biological target: T1, human brain-derived dopamine D4 receptor (Homo sapiens, UniProt P21917)
T1 construct: expressed in transfected cells; host or cells: CHO (CHO-K1) or HEK293 cells
T1 sequence (P21917 1-419): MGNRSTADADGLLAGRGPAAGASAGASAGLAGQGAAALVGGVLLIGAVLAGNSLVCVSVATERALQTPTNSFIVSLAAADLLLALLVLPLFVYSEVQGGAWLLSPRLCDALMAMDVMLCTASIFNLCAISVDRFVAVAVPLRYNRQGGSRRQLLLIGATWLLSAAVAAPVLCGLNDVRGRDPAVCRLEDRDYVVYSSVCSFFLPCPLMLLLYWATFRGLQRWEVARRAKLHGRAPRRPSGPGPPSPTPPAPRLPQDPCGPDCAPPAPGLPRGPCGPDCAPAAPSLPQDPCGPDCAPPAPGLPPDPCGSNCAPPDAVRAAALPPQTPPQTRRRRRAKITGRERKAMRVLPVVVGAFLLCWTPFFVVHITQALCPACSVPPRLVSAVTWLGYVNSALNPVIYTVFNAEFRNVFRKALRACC
Test: Agonistic activity in G protein dependent pathway of dopamine D4 receptor (aequorin intracellular calcium luminescence, FDSS)
Format: cell-based
Details: for pEC50: concentration required to achieve a 50% response of Emax, CHO-K1 or HEK293 cells transfected with D4 receptor; for Emax: read-out: Maximal activity on D4 receptor (%)
Source text: The G protein dependent pathway is a pathway for transmitting signals in cells via a second messenger by stimulating a G protein through the binding of guanosine triphosphate (GTP) to the G protein. When GPCRs are activated by the binding of a ligand, a G protein binds to the GPCRs, and thereby GTP binds to a Gα subunit that is one of G protein subunits and a Gγβ subunit is dissociated. The activated Gα subunit regulates intracellular cAMP levels by the activation or inhibition of an adenylate cyclase, and regulates intracellular calcium levels by the activation of phospholipase C to transmit signals in cells.
The agonistic activities of the present compounds in the G protein dependent pathway were evaluated on the basis of intracellular calcium levels as follows. CHO-K1 or HEK293 cell lines transfected with D4 receptor genes were seeded in a 384-well plate, and incubated in a CO2 incubator at 37° C. for 24 hours, and then a solution of the present compound in DMSO was added into cells preloaded with coelenterazine to measure the change in luminescent signals with a FDSS (Hamamatsu Photonics K.K.). […] The agonistic activity of the present compound was calculated according to the measured luminescent signals, as the maximal activity (Emax) of the present compound. EC50 value was calculated as the concentration of the present compound required to achieve a 50% response of Emax.

| pEC50 | Emax [%] | Structure (SMILES) |
| --- | --- | --- |
| 7.55 | 83 | Fc1ccc(CN2CCn3nc(-c4ccccn4)cc3C2)cc1 [Example 2] |
| 7.72 | 60 | c1ccc(-c2cc3n(n2)CCN(Cc2n[nH]c4ccccc24)C3)nc1 [Example 3] |
| 6.98 | 37 | c1ccc(CN2CCCn3nc(-c4ccccn4)cc3C2)cc1 [Example 8] |
| 7.05 | 34 | Fc1ccc(CN2CCCn3nc(-c4ccccn4)cc3C2)cc1 [Example 9] |
| 6.94 | 65 | c1ccc(-c2cc3n(n2)CCN(Cc2ccc4[nH]ncc4c2)C3)nc1 [Example 13] |
| 7.08 | 46 | c1ccc(-c2cc3n(n2)CCN(Cc2cccc4[nH]cnc24)C3)nc1 [Example 14] |
| 8.04 | 62 | c1ccc(-c2cc3n(n2)CCN(Cc2ccc4cn[nH]c4c2)C3)nc1 [Example 15] |
| 6.86 | 51 | COc1ccccc1-c1cc2n(n1)CCN(Cc1ccc(C)nc1N)C2 [Example 16] |
| 7.60 | 52 | COc1ccccc1-c1cc2n(n1)CCN(Cc1cn3ccccc3n1)C2 [Example 17] |
| 7.27 | 63 | Cc1ccc(CN2CCn3nc(-c4ccccn4)cc3C2)c(N)n1 [Example 19] |
| 7.33 | 59 | Nc1nc(C(F)(F)F)ccc1CN1CCn2nc(-c3ccccn3)cc2C1 [Example 21] |
| 7.60 | 71 | CN1Cc2ccc(CN3CCn4nc(-c5ccccn5)cc4C3)cc2C1 [Example 23, 5-[(2-Methyl-2,3-dihydro-1H-isoindol-5-yl)methyl]-2-(pyridin-2-yl)-4,5,6,7-tetrahydropyrazolo[1,5-a]pyrazine] |
| 9.30 | 62 | Cc1cccc(CN2CCn3nc(-c4ccccn4)cc3C2)c1 [Example 27] |
| 7.42 | 48 | N#Cc1ccc(CN2CCn3nc(-c4ccccn4)cc3C2)cc1 [Example 29] |
| 7.72 | 52 | Cc1c(-c2ccccn2)nn2c1CN(Cc1ccccc1)CCC2 [Example 32, 5-Benzyl-3-methyl-2-(pyridin-2-yl)-5,6,7,8-tetrahydro-4H-pyrazolo[1,5-a][1,4]diazepine] |
| 7.20 | 41 | Fc1c(-c2ccccn2)nn2c1CN(Cc1ccccc1)CCC2 [Example 33, 5-Benzyl-3-fluoro-2-(pyridin-2-yl)-5,6,7,8-tetrahydro-4H-pyrazolo[1,5-a][1,4]diazepine] |
| 8.28 | 73 | Cc1cccnc1-c1cc2n(n1)CCN(Cc1ccc3cn[nH]c3c1)C2 [Example 34] |

| pEC50 | Emax [%] | Structure (SMILES) |
| --- | --- | --- |
| 8.37 | 87 | Cc1cccnc1-c1cc2n(n1)CCN(Cc1n[nH]c3ccccc13)C2 [Example 35] |
| 7.46 | 69 | c1ccc(-c2cc3n(n2)CCN(Cc2ccc4occc4c2)C3)nc1 [Example 39] |
| 7.96 | 70 | Cc1cccnc1-c1cc2n(n1)CCN(Cc1n[nH]c3c(F)cccc13)C2 [Example 40] |
| 7.34 | 54 | Cc1cccnc1-c1cc2n(n1)CCN(Cc1ccc3c(c1)NC(=O)CC3)C2 [Example 41] |
| 7.72 | 84 | Cc1cccnc1-c1cc2n(n1)CCN(Cc1ccc(CF)cc1)C2 [Example 49] |
| 7.21 | 41 | Cc1ccc(CN2CCn3nc(-c4ncccc4F)cc3C2)cn1 [Example 50] |
| 7.47 | 58 | Cc1cccnc1-c1cc2n(n1)CCN(Cc1ccc(OC(F)(F)F)cc1C#N)C2 [Example 52] |
| 7.17 | 92 | Cc1cccnc1-c1cc2n(n1)CCN(Cc1ccc(C(F)(F)F)cc1)C2 [Example 55] |
| 7.08 | 77 | Cc1cccnc1-c1cc2n(n1)CCN(Cc1ccc(C#N)cc1)C2 [Example 57] |
| 7.44 | 58 | Cc1cccnc1-c1cc2n(n1)CCN(Cc1cccc(Cl)c1)C2 [Example 59] |
| 7.00 | 59 | Cc1cccnc1-c1cc2n(n1)CCN(Cc1cccc(C(F)(F)F)c1)C2 [Example 60] |
| 7.47 | 57 | Cc1cccnc1-c1cc2n(n1)CCN(Cc1cccc(F)c1)C2 [Example 61] |
| 7.60 | 89 | Cc1cccnc1-c1cc2n(n1)CCN(Cc1cccc(C#N)c1)C2 [Example 62] |
| 6.99 | 40 | Cc1cccnc1-c1cc2n(n1)CCN(Cc1cccc(OC(F)(F)F)c1)C2 [Example 63] |
| 7.70 | 69 | Cc1cccnc1-c1cc2n(n1)CCN(Cc1ccc([N+](=O)[O-])cc1)C2 [Example 65] |
| 7.57 | 64 | Cc1ccc(CN2CCn3nc(-c4ncccc4C)cc3C2)cn1 [Example 67] |
| 7.23 | 50 | N#Cc1ccc(CN2CCn3nc(-c4ncccc4F)cc3C2)cc1 [Example 69] |

The next lines start with the compound.

| Structure (SMILES) | pEC50 | Emax [%] |
| --- | --- | --- |
| c1ccc(CN2CCn3nc(-c4ccccn4)cc3C2)cc1 [Example 1, 5-Benzyl-2-(pyridin-2-yl)-4,5,6,7-tetrahydropyrazolo[1,5-a]pyrazine] | 7.70 | 71 |
| Fc1ccc2[nH]nc(CN3CCn4nc(-c5ccccn5)cc4C3)c2c1 [Example 4] | 7.77 | 60 |
| COc1ccccc1-c1cc2n(n1)CCN(Cc1ccc(F)c(C#N)c1)C2 [Example 18] | 7.22 | 83 |
| O=C1CCc2ccc(CN3CCn4nc(-c5ccccn5)cc4C3)cc2N1 [Example 20] | 7.29 | 42 |
| COc1ccccc1-c1cc2n(n1)CCN(Cc1ccc(F)cc1F)C2 [Example 25, 5-(2,4-Difluorobenzyl)-2-(2-methoxyphenyl)-4,5,6,7-tetrahydropyrazolo[1,5-a]pyrazine] | 7.00 | 57 |
| Cc1ccccc1CN1CCn2nc(-c3ccccn3)cc2C1 [Example 26] | 7.21 | 49 |
| Cc1ncc(CN2CCn3nc(-c4ncccc4C)cc3C2)c(N)n1 [Example 30, 2-Methyl-5-{[2-(3-methylpyridin-2-yl)-6,7-dihydropyrazolo[1,5-a]pyrazin-5(4H)-yl]methyl}pyrimidine-4-amine] | 7.10 | 53 |
| N#Cc1cc(CN2CCn3nc(-c4ccccn4)cc3C2)ccc1F [Example 36] | 7.40 | 77 |
| Cc1n[nH]c2ccc(CN3CCn4nc(-c5ccccn5)cc4C3)cc12 [Example 37] | 7.21 | 54 |
| Cc1nc2c(CN3CCn4nc(-c5ccccn5)cc4C3)cccc2[nH]1 [Example 42] | 7.00 | 50 |
| Cc1ccc(CN2CCn3nc(-c4ncccc4C)cc3C2)c(N)n1 [Example 43] | 7.82 | 77 |
| Cc1cccnc1-c1cc2n(n1)CCN(Cc1n[nH]c3ccc(F)cc13)C2 [Example 44] | 7.59 | 98 |
| Cc1cccnc1-c1cc2n(n1)CCN(Cc1n[nH]c3cccc(C)c13)C2 [Example 45] | 6.80 | 54 |
| Cc1ncc(CN2CCn3nc(-c4ncccc4F)cc3C2)c(N)n1 [Example 46] | 7.35 | 59 |
| Cc1cccnc1-c1cc2n(n1)CCN(Cc1ccc(C(F)(F)F)cc1F)C2 [Example 47] | 7.15 | 65 |
| Cc1cccnc1-c1cc2n(n1)CCN(Cc1ccc(C(F)(F)F)c(F)c1)C2 [Example 48] | 7.02 | 50 |
| O=C1NCc2cc(CN3CCn4nc(-c5ccccn5)cc4C3)ccc21 [Example 51] | 7.15 | 32 |
| Cc1ccc(CN2CCn3nc(-c4ncccc4C)cc3C2)cc1 [Example 53] | 8.00 | 99 |
| Cc1cccc(CN2CCn3nc(-c4ncccc4C)cc3C2)c1 [Example 54] | 8.15 | 80 |
| Cc1cccnc1-c1cc2n(n1)CCN(Cc1ccc(Cl)cc1)C2 [Example 56] | 7.92 | 78 |
| Cc1cccnc1-c1cc2n(n1)CCN(Cc1ccc(F)cc1)C2 [Example 58] | 7.66 | 81 |
| Cc1cccnc1-c1cc2n(n1)CCN(Cc1cc(OC(F)(F)F)ccc1F)C2 [Example 64] | 6.97 | 42 |
| Cc1cccnc1-c1cc2n(n1)CCN(Cc1ccc(OC(F)(F)F)cc1F)C2 [Example 66] | 6.85 | 52 |
| Fc1cccnc1-c1cc2n(n1)CCN(Cc1ccc(C(F)(F)F)cc1)C2 [Example 68] | 7.16 | 64 |
| Cc1cccnc1-c1cc2n(n1)CCN(Cc1ccc3c(c1)N(C)C(=O)CC3)C2 [Example 70] | 7.07 | 45 |
